# Assay results published in US20160251725A1, “METHOD FOR PREDICTING CLINICAL TOXICITY AND OUTCOME” (AGENCY FOR SCIENCE, TECHNOLOGY AND RESEARCH, priority 2013, published 2016).
# Assays:
# mRCC patients [1] = test: Progression-free and overall survival on first-line sunitinib (Kaplan-Meier, Cox regression); format: in vivo, human; conditions: for Overall survival HR multivariate / Progression-free survival HR multivariate: starting dose as covariate
# Procedure: (§1) Twelve patients in this study received a starting dose of 50 mg daily. Six patients started with 25 mg daily due to advanced age or patients' aversion to expected toxicities.
# (§2) Genotype associations with toxicity events or responsive tumor were first analyzed using univariate logistic regression. Genotypes generating P<0.20 were further analyzed using multivariate logistic regression including patient age, gender, baseline ECOG status and starting dose as covariates. Progression-free survival and overall survival were estimated by means of Kaplan-Meier method, while the associations of genotypes and patient characteristics with PFS and OS were analyzed using two-tailed log rank test. The effects of genotypes on the progression-free survival and overall survival were then evaluated using multivariate Cox regression model by including genotypes and patient characteristics with P<0.05 in univariate analysis. […] In all analyses, missing data were kept missing except for baseline ECOG status, which was replaced with the median value. As this was designed as a validation study of previously observed correlations rather than an exploratory evaluation, multiple testing correction was not done.
# mRCC patients [2] = test: Tumor response to sunitinib (RECIST version 1.1), clinical benefit / primary resistance; format: in vivo, human
# Procedure: as §1
# Patient characteristics were also collected including age, gender, ethnicity, body weight and height, and Eastern Cooperative Oncology Group (ECOG) performance status. Memorial Sloan-Kettering Cancer Center (MSKCC) prognostic score was calculated for each patient with available data. All the collected data were de-identified by a third party before being used in statistical analysis. The follow-up period ended at the end of April, 2014.
# as §2
# [3] = ABCB1 haplotype TTT/TTT (homozygous carriers)
# [4] = ABCB1 haplotype TTT/TTT vs Other
smiles,measurement,setting,value
CCN(CC)CCNC(=O)c1c(C)[nH]c(/C=C2\C(=O)Nc3ccc(F)cc32)c1C [sunitinib],Median overall survival,mRCC patients [1]; ABCB1 1236 T/C CC + CT,20 months
same,Median progression-free survival,mRCC patients [1]; ABCB1 1236 T/C CC + CT,11.7 months
same,Median overall survival,mRCC patients [1]; ABCB1 1236 T/C TT,10.4 months
same,Median progression-free survival,mRCC patients [1]; ABCB1 1236 T/C TT,3.6 months
same,Overall survival HR univariate,mRCC patients [1]; ABCB1 1236 TT vs CC + CT,1.7
same,Progression-free survival HR univariate,mRCC patients [1]; ABCB1 1236 TT vs CC + CT,1.7
same,Overall survival HR multivariate,mRCC patients [1]; ABCB1 1236 TT vs CC + CT,1.7
same,Progression-free survival HR multivariate,mRCC patients [1]; ABCB1 1236 TT vs CC + CT,1.7
same,Median overall survival,mRCC patients [1]; ABCB1 2677 G/TA Other,19.6 months
same,Median progression-free survival,mRCC patients [1]; ABCB1 2677 G/TA Other,8.4 months
same,Median overall survival,mRCC patients [1]; ABCB1 2677 G/TA TT,5.9 months
same,Median progression-free survival,mRCC patients [1]; ABCB1 2677 G/TA TT,2.7 months
same,Overall survival HR univariate,mRCC patients [1]; ABCB1 2677 TT vs Other,2.9
same,Progression-free survival HR univariate,mRCC patients [1]; ABCB1 2677 TT vs Other,2.3
same,Overall survival HR multivariate,mRCC patients [1]; ABCB1 2677 TT vs Other,2.0
same,Progression-free survival HR multivariate,mRCC patients [1]; ABCB1 2677 TT vs Other,1.5
same,Median overall survival,mRCC patients [1]; ABCB1 3435 C/T CC + CT,19.5 months
same,Median progression-free survival,mRCC patients [1]; ABCB1 3435 C/T CC + CT,8.4 months
same,Median overall survival,mRCC patients [1]; ABCB1 3435 C/T TT,7.2 months
same,Median progression-free survival,mRCC patients [1]; ABCB1 3435 C/T TT,2.7 months
same,Overall survival HR univariate,mRCC patients [1]; ABCB1 3435 TT vs CC + CT,1.6
same,Progression-free survival HR univariate,mRCC patients [1]; ABCB1 3435 TT vs CC + CT,1.7
same,Overall survival HR multivariate,mRCC patients [1]; ABCB1 3435 TT vs CC + CT,1.7
same,Progression-free survival HR multivariate,mRCC patients [1]; ABCB1 3435 TT vs CC + CT,1.7
same,Median overall survival,mRCC patients [1]; ABCB1 haplotype Other,19.6 months
same,Median progression-free survival,mRCC patients [1]; ABCB1 haplotype Other,8.4 months
same,Median overall survival,mRCC patients [1]; [3],4.6 months
same,Median progression-free survival,mRCC patients [1]; [3],2.4 months
same,Overall survival HR univariate,mRCC patients [1]; [4],3.9
same,Progression-free survival HR univariate,mRCC patients [1]; [4],4.9
same,Overall survival HR multivariate,mRCC patients [1]; [4],5.0
same,Progression-free survival HR multivariate,mRCC patients [1]; [4],5.5
same,Overall survival HR univariate,mRCC patients [1]; Age,1.0
same,Progression-free survival HR univariate,mRCC patients [1]; Age,1.0
same,Median overall survival,mRCC patients [1]; Baseline ECOG 0,32.9 months
same,Median progression-free survival,mRCC patients [1]; Baseline ECOG 0,16.1 months
same,Median overall survival,mRCC patients [1]; Baseline ECOG 1,19.6 months
same,Median progression-free survival,mRCC patients [1]; Baseline ECOG 1,6.9 months
same,Overall survival HR univariate,mRCC patients [1]; Baseline ECOG 1 vs 0,1.9
same,Progression-free survival HR univariate,mRCC patients [1]; Baseline ECOG 1 vs 0,2.2
same,Median overall survival,mRCC patients [1]; Baseline ECOG 2,5.7 months
same,Median progression-free survival,mRCC patients [1]; Baseline ECOG 2,3.3 months
same,Overall survival HR univariate,mRCC patients [1]; Baseline ECOG 2 vs 0,3.0
same,Progression-free survival HR univariate,mRCC patients [1]; Baseline ECOG 2 vs 0,2.8
same,Median overall survival,mRCC patients [1]; Baseline ECOG 3,15.7 months
same,Median progression-free survival,mRCC patients [1]; Baseline ECOG 3,12.9 months
same,Overall survival HR univariate,mRCC patients [1]; Baseline ECOG 3 vs 0,2.7
same,Progression-free survival HR univariate,mRCC patients [1]; Baseline ECOG 3 vs 0,2.8
same,Median overall survival,mRCC patients [1]; Gender Female,19.9 months
same,Median progression-free survival,mRCC patients [1]; Gender Female,10.0 months
same,Median overall survival,mRCC patients [1]; Gender Male,16.3 months
same,Median progression-free survival,mRCC patients [1]; Gender Male,8.1 months
same,Median overall survival,mRCC patients [1]; MSKCC Good,41.4 months
same,Median progression-free survival,mRCC patients [1]; MSKCC Good,12.6 months
same,Median overall survival,mRCC patients [1]; MSKCC Intermediate,19.6 months
same,Median progression-free survival,mRCC patients [1]; MSKCC Intermediate,10.0 months
same,Overall survival HR univariate,mRCC patients [1]; MSKCC Intermediate vs Good,2.2
same,Progression-free survival HR univariate,mRCC patients [1]; MSKCC Intermediate vs Good,1.3
same,Median overall survival,mRCC patients [1]; MSKCC Poor,14 months
same,Median progression-free survival,mRCC patients [1]; MSKCC Poor,5.5 months
same,Overall survival HR univariate,mRCC patients [1]; MSKCC Poor vs Good,3.1
same,Progression-free survival HR univariate,mRCC patients [1]; MSKCC Poor vs Good,2.3
same,Overall survival HR univariate,mRCC patients [1]; Male vs Female,1.1
same,Progression-free survival HR univariate,mRCC patients [1]; Male vs Female,1.1
same,Median overall survival,mRCC patients [1]; Starting dose 37.5 mg,19.5 months
same,Median progression-free survival,mRCC patients [1]; Starting dose 37.5 mg,8.3 months
same,Median overall survival,mRCC patients [1]; Starting dose 50 mg,47.4 months
same,Median progression-free survival,mRCC patients [1]; Starting dose 50 mg,17.3 months
same,Overall survival HR univariate,mRCC patients [1]; Starting dose 37.5 vs ≦37.5 mg,0.2
same,Overall survival HR univariate,mRCC patients [1]; Starting dose 50 vs ≦37.5 mg,0.1
same,Median overall survival,mRCC patients [1]; Starting dose ≦37.5 mg,4.6 months
same,Median progression-free survival,mRCC patients [1]; Starting dose ≦37.5 mg,1.8 months
same,Median overall survival,mRCC patients [1]; all 81 first-line patients,19.5 months
same,Median progression-free survival,mRCC patients [1]; all 81 first-line patients,8.1 months
same,Clinical benefit prevalence,mRCC patients [2]; ABCB1 2677 G/TA Other,55/79
same,Clinical benefit prevalence,mRCC patients [2]; ABCB1 2677 G/TA TT,4/11
same,Clinical benefit OR multivariate,mRCC patients [2]; ABCB1 2677 TT vs Other,0.1
same,Clinical benefit OR univariate,mRCC patients [2]; ABCB1 2677 TT vs Other,0.3
same,Clinical benefit prevalence,mRCC patients [2]; ABCB1 3435 C/T CC + CT,54/78
same,Clinical benefit prevalence,mRCC patients [2]; ABCB1 3435 C/T TT,5/12
same,Clinical benefit OR multivariate,mRCC patients [2]; ABCB1 3435 TT vs CC + CT,0.2
same,Clinical benefit OR univariate,mRCC patients [2]; ABCB1 3435 TT vs CC + CT,0.3
same,Clinical benefit prevalence,mRCC patients [2]; ABCB1 haplotype Other,57/82
same,Clinical benefit prevalence,mRCC patients [2]; ABCB1 haplotype TTT/TTT,2/8
same,Clinical benefit OR multivariate,mRCC patients [2]; [4],0.1
same,Clinical benefit OR univariate,mRCC patients [2]; [4],0.2
same,Clinical benefit OR univariate,mRCC patients [2]; Age,1.0
same,Clinical benefit prevalence,mRCC patients [2]; Baseline ECOG 0,20/25
same,Clinical benefit prevalence,mRCC patients [2]; Baseline ECOG 1,31/49
same,Clinical benefit OR univariate,mRCC patients [2]; Baseline ECOG 1 vs 0,0.4
same,Clinical benefit prevalence,mRCC patients [2]; Baseline ECOG 2,5/11
same,Clinical benefit OR univariate,mRCC patients [2]; Baseline ECOG 2 vs 0,0.2
same,Clinical benefit prevalence,mRCC patients [2]; Baseline ECOG 3,3/5
same,Clinical benefit OR univariate,mRCC patients [2]; Baseline ECOG 3 vs 0,0.4
same,Clinical benefit OR univariate,mRCC patients [2]; Female vs Male,1.2
same,Clinical benefit prevalence,mRCC patients [2]; Gender Female,13/19
same,Clinical benefit prevalence,mRCC patients [2]; Gender Male,46/71
same,Clinical benefit prevalence,mRCC patients [2]; Starting dose 37.5 mg,49/75
same,Clinical benefit prevalence,mRCC patients [2]; Starting dose 50 mg,9/11
same,Clinical benefit OR univariate,mRCC patients [2]; Starting dose 37.5 vs ≦37.5 mg,5.7
same,Clinical benefit prevalence,mRCC patients [2]; Starting dose ≦37.5 mg,1/4
same,Clinical benefit prevalence (cases with PR or SD as best response/total in group),mRCC patients [2]; all patients (n = 90),59/90
